Experimental findings from patent US20130059840A1, “SULFONAMIDO PYRROLIDINE COMPOUNDS WHICH INHIBIT BETA-SECRETASE ACTIVITY AND METHODS OF USE THEREOF” (CoMentis, Inc., priority 2009, published 2013) are described below.

Each structure is given as a SMILES string.

As usually defined, the IC50 is the concentration at which inhibition is half-maximal. What is called Ki is a measure of affinity in units of concentration, obtained from inhibition or displacement.

The target in series [1] is T1, memapsin 2 (Cricetulus griseus, UniProt G3IAK4).
T1 construct: endogenous in cells; host or cells: Chinese hamster ovary cells over-expressing human APP695 (London + Swedish)
T1 sequence (G3IAK4 22-501): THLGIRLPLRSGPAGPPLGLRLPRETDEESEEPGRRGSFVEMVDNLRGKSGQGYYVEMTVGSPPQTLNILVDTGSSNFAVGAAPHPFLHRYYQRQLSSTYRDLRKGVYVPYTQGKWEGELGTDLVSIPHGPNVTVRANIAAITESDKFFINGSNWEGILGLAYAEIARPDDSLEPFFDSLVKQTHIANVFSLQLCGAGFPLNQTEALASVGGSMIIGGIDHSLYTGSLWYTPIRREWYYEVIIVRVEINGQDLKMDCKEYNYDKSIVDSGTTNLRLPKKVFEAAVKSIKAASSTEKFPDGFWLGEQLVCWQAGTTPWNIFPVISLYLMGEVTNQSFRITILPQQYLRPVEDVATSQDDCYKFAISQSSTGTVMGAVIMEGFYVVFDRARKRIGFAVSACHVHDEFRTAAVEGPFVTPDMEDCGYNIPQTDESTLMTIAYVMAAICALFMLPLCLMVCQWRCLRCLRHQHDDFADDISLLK
Put plainly: Cellular Aβ IC50 determination (Aβ40 sandwich ELISA). The following applies: Chinese hamster ovary cells over-expressing human APP695 (London and Swedish mutations), Aβ40, 24 h; read-out: M2 IC50. Type of series: cell-based. Here is the method:
The potency of compounds against memapsin 2 activity was determined in a cellular assay of Aβ production. […] Chinese hamster ovary cells that over-express human APP695 with the London and Swedish mutations were seeded in multi-well plates at 10% confluency. Compounds are dissolved in DMSO to concentrations near 1 mM, and diluted into culture media to a final concentration near 4 μM (final 0.4% DMSO). Compounds were diluted serially and applied to cells in multi-well plates 48 h after seeding. Incubation was continued in 5% CO2 at 37° C. for 24 h. Aliquots were removed and assayed for Aβ40 content using a sandwich ELISA (BioSource International). Amount of Aβ40 over the range of concentration of compounds, relative to control incubations, were fit to a 4-parameter IC50 model.

A short description of series [2]: Hepatic intrinsic clearance in liver microsomes. Type of series: in vitro ADME. The following applies: pH 7.4; human liver microsomes, LC/MS/MS; read-out: HLM CL. Here is the method:
To 500 μl of 200 mM Na^+ K^+ phosphate buffer (pH 7.4), 100 μl of 1 mM EDTA solution was added followed by 100 μl of 2 mg protein/ml human liver microsomes. A 10 μl aliquot of test compound (20 mM stock in 50% acetonitrile) was diluted further with 40 μl of H2O (total assay volume 750 μl. Assay mixture is incubated for 5 minutes at 37° C. The assay was initiated by addition of 250 μl of 4 mM NADPH solution. Incubation was continued at 37° C. Separate reaction mixtures were prepared for 0, 5, 10, 20, and 30 min durations. Individual reactions were halted by addition of 150 μl of 100% acetonitrile. Internal standard (10 μl of 100 ng/ml diazepam solution) was added. Concentration of the test compound in each separate reaction was measured using LC/MS/MS and a standard curve for the test compound according to standard procedures.
The hepatic intrinsic clearance in liver microsome was determined by the following procedure described by Davies and Morris (Davies, B. and Morris, T. (19930) Physiological parameters in laboratory animals and humans. Pharm Res. 10:1093-1095) detailing the relationship of in vitro clearance to physiological parameters in animals and human subjects.
The amount of compound remaining at each time point was expressed relative to the amount present in the initial (0 min) incubation. The relationship of relative amount vs. time was used to determine the half life of the compound in the microsome assay. The concentration independent rate constant, k1, was determined from rectangular hyperbolic fit:
% remaining=100*(e^−k^1^T)
where T is time (in minutes), from the relationship of relative amount vs. time. Alternatively, k1 was determined from a transform of the equation, where
Conversion to in vivo clearance was obtained from the relation (Davies and Morris, 1993):
where v=velocity of metabolism, [S] is the concentration of the compound, and volumes are expressed in mL.

Series [3] deals with memapsin 2 (Homo sapiens, UniProt P56817). Nature of the series: Inhibition of memapsin 2 beta-secretase activity (fluorogenic substrate FS-2). Format: biochemical. The conditions noted are these: pH 4, 37° C., read-out: M2 Ki. The protocol:
Potency of compounds were determined by measurement of their inhibition of memapsin 2 activity toward a fluorescent substrate. Kinetic inhibition experiments were performed using the procedure as described in Ermolieff, et al. (Biochemistry 39:12450-12456 (2000), the teachings of which are incorporated hereby in their entirety). Briefly, assays were performed at pH 4, 37° C., by pre-incubation of memapsin 2 enzyme with compound for 20 minutes. Activity measurements were initiated by addition of a fluorogenic substrate FS-2 (Bachem Americas, Torrance, Calif.) MCA-SEVNLDAEFR-DNP (SEQ ID NO.: 2). The substrate was derived from 10 amino acids of the human amyloid precursor protein (APP), with the Swedish variant amino acids at the beta-secretase cleavage site. The terminal amino acid was modified from arginine to lysine to facilitate derivatization with a functional group for detection by autofluorescence. The amino acid sequence of the “core” peptide of the substrate is SEVNLDAEFK (SEQ ID NO.: 3). The amino terminus was derivatized with (7-methoxycoumarin-4-yl)acetyl (MCA), and the epsilon amine of the lysine side chain of the terminal residue (K in sequence SEVNLDAEFK (SEQ ID NO.: 3)) was derivatized with 2,4-dinitrophenyl (DNP).

For a further series, the target named is Cathepsin D (UniProt P07339). Put plainly: Inhibition of cathepsin D activity (MALDI-TOF, substrate peptide). Format: biochemical. The following applies: substrate peptide NH3-ELDLAVEFWHDR-CO2, pH 4.1, 37 degrees C.; read-out: CD Ki.
A further series has as its target T2, CYP3A4 (Homo sapiens, UniProt P08684).
T2 construct: with human liver microsomes (HLM) at a final protein concentration of 0.1 mg/mL protein; from tissue; host or cells: human liver microsomes
Nature of the series: Determination of CYP3A4 inhibition (midazolam metabolism). Type of series: in vitro ADME. The conditions noted are these: human liver microsomes, midazolam substrate. The protocol:
To evaluate the drug-drug interaction potential for compounds, the potency to inhibit the major metabolic cytochrome CYP450 isoform 3A4 was assessed. The inhibition constant Ki was determined for inhibition of the metabolism of midazolam, a CYP3A4 substrate.
CYP3A4 Ki assays were performed following a recently published protocol with slight modifications (Di, L., Kerns, E. H., Li, S. Q., and Carter, G. T. (2007) Comparison of cytochrome P450 inhibition assays for drug discovery using human liver microsomes with LC-MS, rhCYP450 isozymes with fluorescence, and double cocktail with LC-MS. International Journal of Pharmaceutics 335: 1-11). The P450 inhibition assay was performed in 96-well plates at 37.2° C. in a shaking incubator. […]
After incubation for the specified time in a humidified shaking incubator, 20 μL of the reaction mixture was removed and the reactions were terminated by adding […] of cold acetonitrile. […] Formation of 1′-hydroxymidazolam was measured by monitoring a specific SRM (342>203) transition for the CYP3A4 metabolite.
Data were expressed as the relative quantity of midazolam metabolite relative to control incubations. Initial velocities were obtained by multiplying the relative quantity by the initial substrate concentration and dividing by the incubation duration. […]
A general note: Microsomes from liver hold many membrane-bound enzymes, among them those of drug oxidation.

Sequence of memapsin 2 (Homo sapiens, UniProt P56817) (P56817 46-501): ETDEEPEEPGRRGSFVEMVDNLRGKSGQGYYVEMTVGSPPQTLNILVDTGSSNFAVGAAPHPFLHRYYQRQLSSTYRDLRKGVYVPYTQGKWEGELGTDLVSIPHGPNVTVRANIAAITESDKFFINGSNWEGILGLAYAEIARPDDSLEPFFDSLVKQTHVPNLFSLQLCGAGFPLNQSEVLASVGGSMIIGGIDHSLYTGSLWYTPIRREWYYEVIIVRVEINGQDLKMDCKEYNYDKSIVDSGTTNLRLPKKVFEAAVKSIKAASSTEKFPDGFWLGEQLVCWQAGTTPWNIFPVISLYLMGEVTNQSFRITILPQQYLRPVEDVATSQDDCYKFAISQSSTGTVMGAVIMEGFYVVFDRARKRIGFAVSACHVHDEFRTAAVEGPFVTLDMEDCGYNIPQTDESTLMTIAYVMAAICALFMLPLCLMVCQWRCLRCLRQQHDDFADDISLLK
T2 sequence (P08684 whole entry): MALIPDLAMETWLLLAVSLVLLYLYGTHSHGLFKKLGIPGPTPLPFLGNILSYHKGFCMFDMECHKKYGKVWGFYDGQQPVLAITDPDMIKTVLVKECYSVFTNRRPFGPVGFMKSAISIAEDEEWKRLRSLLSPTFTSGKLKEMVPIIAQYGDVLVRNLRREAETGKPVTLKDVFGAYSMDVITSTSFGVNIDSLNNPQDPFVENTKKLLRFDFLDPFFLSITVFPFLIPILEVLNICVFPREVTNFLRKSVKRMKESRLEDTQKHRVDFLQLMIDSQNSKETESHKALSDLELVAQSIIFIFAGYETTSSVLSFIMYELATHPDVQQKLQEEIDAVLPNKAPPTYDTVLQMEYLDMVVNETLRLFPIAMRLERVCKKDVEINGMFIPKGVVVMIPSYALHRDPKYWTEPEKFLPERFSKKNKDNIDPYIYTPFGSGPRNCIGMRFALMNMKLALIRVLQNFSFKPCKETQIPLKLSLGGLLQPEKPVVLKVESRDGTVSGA

As for `Cc1csc([C@H]2CCCN2C(=O)c2cc(C(=O)N[C@@H](Cc3cc(F)cc(F)c3)[C@H](O)[C@H]3CCCN3)cc(N3CCCS3(=O)=O)c2)n1` [1-90, N-((1R,2S)-1-hydroxy-3-(3,5-difluorophenyl)-1-((R)-pyrrolidin-2-yl)propan-2-yl)-3-((R)-2-(4-methylthiazol-2-yl)pyrrolidine-1-carbonyl)-5-([1,2]thiazolidyl-S,S-dioxide)benzamide], on memapsin 2 [1], the half-inhibitory concentration (IC50) is below 500 nM. Besides, the CLint scaled at 200 μM in series [2] was below 400 mL/min/kg. Besides, the Ki at memapsin 2 [3] was below 250 nM; on Cathepsin D it was above 500 nM.
For `Cc1csc([C@H]2CCCN2C(=O)c2cc(C(=O)N[C@@H](Cc3ccccc3)[C@H](O)[C@H]3CCCN3)cc(N3CCCS3(=O)=O)c2)n1` [1-89, N-((1R,2S)-1-hydroxy-3-phenyl-1-((R)-pyrrolidin-2-yl)propan-2-yl)-3-((R)-2-(4-methylthiazol-2-yl)pyrrolidine-1-carbonyl)-5-([1,2]thiazolidyl-S,S-dioxide)benzamide] the same measures were below 500 nM, below 400 mL/min/kg, below 250 nM and above 500 nM.
Consider `Cc1csc([C@H]2CCCN2C(=O)c2cc(C(=O)N[C@@H](Cc3ccccc3)[C@H](O)[C@H]3CCCN3)cc(N3CCCCS3(=O)=O)c2)n1` [1-78, N-((1R,2S)-1-hydroxy-3-phenyl-1-((R)-pyrrolidin-2-yl)propan-2-yl)-3-((R)-2-(4-methylthiazol-2-yl)pyrrolidine-1-carbonyl)-5-(thiazinanyl-S,S-dioxide)benzamide], for which the IC50 at memapsin 2 [1] was below 500 nM. On CYP3A4, this compound displayed a Ki above 10000 nM. The CLint scaled at 200 μM in series [2] was below 400 mL/min/kg.
For `Cc1csc([C@H]2CCCN2C(=O)c2cc(C(=O)N[C@@H](Cc3cccc(F)c3)[C@H](O)[C@H]3CCCN3)cc(N3CCCS3(=O)=O)c2)n1` [1-91, N-((1R,2S)-1-hydroxy-3-(5-fluorophenyl)-1-((R)-pyrrolidin-2-yl)propan-2-yl)-3-((R)-2-(4-methylthiazol-2-yl)pyrrolidine-1-carbonyl)-5-([1,2]thiazolidyl-S,S-dioxide)benzamide], the IC50 at memapsin 2 [1] was in the range of 500 to 1000 nM. Further, the CLint scaled at 200 μM in series [2] is below 400 mL/min/kg. Besides, the Ki at memapsin 2 [3] was below 250 nM; at Cathepsin D it was above 500 nM.
With `Cc1csc([C@H]2CCCN2C(=O)c2cc(C(=O)N[C@@H](Cc3cc(F)cc(F)c3)[C@H](O)[C@H]3CCCN3)cc(N3CCCCS3(=O)=O)c2)n1` [1-87, N-((1R,2S)-1-hydroxy-3-(3,5-difluorophenyl)-1-((R)-pyrrolidin-2-yl)propan-2-yl)-3-((R)-2-(4-methylthiazol-2-yl)pyrrolidine-1-carbonyl)-5-(thiazinanyl-S,S-dioxide)benzamide], the IC50 on memapsin 2 [1] is below 500 nM. Moreover, the Ki was above 10000 nM on CYP3A4, below 250 nM at memapsin 2 [3] and above 500 nM at Cathepsin D. Besides, the CLint scaled at 200 μM in series [2] is below 400 mL/min/kg.
